What all share (type): cell-based
Assay [1] deals with T-47D cells. As to the kind of experiment: Inhibition of cell proliferation in T-47D cells (CCK-8). As to conditions: 6 days treatment, CCK-8 cell viability. The method in brief: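 Viability by CCK-8 after a 6-day, 37 °C/5% CO2 exposure of T-47D cells (3,000/well, RPMI-1640 + 10% FBS) to graded PROTAC concentrations. Inhibition rates gave the IC50.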
Assay [2] concerns MCF-7 cells. Description: Inhibition of cell proliferation in MCF-7 cells (CCK-8). Particulars: Homo sapiens, MCF7, 144 h, MCF-7 cell proliferation, 6 days treatment. Put shortly:
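IC50 from CCK-8 viability-based inhibition after 6-day treatment of MCF-7 cells (800 cells/well, 10% FBS DMEM, 37 °C, 5% CO2) with serially varied compound concentrations.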

Assay [3] deals with T1, ERα (Homo sapiens, UniProt P03372).
T1 sequence (P03372 1-595): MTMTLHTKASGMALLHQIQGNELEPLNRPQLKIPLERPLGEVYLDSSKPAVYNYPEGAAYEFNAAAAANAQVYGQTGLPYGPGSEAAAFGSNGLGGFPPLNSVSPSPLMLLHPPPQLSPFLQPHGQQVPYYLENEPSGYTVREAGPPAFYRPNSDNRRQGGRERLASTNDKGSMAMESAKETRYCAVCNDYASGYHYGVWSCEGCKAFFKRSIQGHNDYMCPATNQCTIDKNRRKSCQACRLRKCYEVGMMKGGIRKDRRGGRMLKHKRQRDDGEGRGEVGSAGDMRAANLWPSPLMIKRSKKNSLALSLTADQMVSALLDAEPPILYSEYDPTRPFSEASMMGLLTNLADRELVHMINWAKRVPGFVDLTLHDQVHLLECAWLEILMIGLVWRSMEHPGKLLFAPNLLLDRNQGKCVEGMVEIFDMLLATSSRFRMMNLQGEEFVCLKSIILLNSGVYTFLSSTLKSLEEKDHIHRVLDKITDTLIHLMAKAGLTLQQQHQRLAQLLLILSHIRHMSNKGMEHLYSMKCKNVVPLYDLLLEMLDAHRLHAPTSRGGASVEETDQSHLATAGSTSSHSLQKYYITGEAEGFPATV
As to the kind of experiment: ERα degradation in T-47D cells (Western blot). As to conditions: 4 hours. The method in brief:
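ERα was quantified by immunoblot of RIPA lysates (20 µg total protein), normalised to an internal reference band, and degradation was expressed against control. Lysates came from T-47D cells plated at 3×10^5 cells/well and dosed 4 hours at 37°C with compound at 0.15-1000 nM final concentration.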
(In general: In western blotting, separated proteins are transferred to a membrane and probed.)

Assay [4] deals with T1, ERα. As to the kind of experiment: ERα degradation in MCF-7 cells (Western blot). Further details: host or cells: MCF-7. As to conditions: 4 hours. Put shortly: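 ERα degradation was quantified by immunoblot densitometry, ERα signal divided by internal-reference signal and compared with control. Compounds were applied to MCF-7 cells for 4 hours at final concentrations of 0.15–1000 nM, with 20 µg total protein loaded per lane.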

Usually IC50 stands for the concentration that inhibits the measured activity by half. Low values mean higher potency, high ones lower potency. Turning to `Cn1c(=O)n(C2CCC(=O)NC2=O)c2cc3c(cc21)C1(CCN(CC2CCC4(CC2)CCN(c2ccc([C@@H]5c6ccc(O)cc6CC[C@@H]5c5ccccc5)cc2)CC4)CC1)CO3` (stereo partly drawn) [ER-P-62], the IC50 is 2.64 nM in assay [1] (Homo sapiens, T47D, 144 h) and 183 nM in assay [2]. Further, the “Degradation rate of ERα in T-47D cells (%)” value was 13% in assay [3] (1nM) and 52% in assay [3] (10nM). The “Degradation rate of ERα in MCF-7 cells (%)” value in assay [4] (1nM) was found to be 14%; in assay [4] (10nM) it was 39%.

Take `Cn1c(=O)n(C2CCC(=O)NC2=O)c2cc3c(cc21)C1(CCN(C2CCN(C(=O)C4CCN(c5ccc([C@@H]6c7ccc(O)cc7CC[C@@H]6c6ccccc6)cc5)CC4)CC2)CC1)CO3` (stereo partly drawn) [ER-P-14, 3-(1'-(1-(1-(4-((1R,2S)-6-hydroxy-2-phenyl-1,2,3,4-tetrahydronaphthalen-1-yl)phenyl)piperidine-4-carbonyl)piperidin-4-yl)-1-methyl-2-oxo-1,2-dihydro-3H,6H-spiro[benzofuro[5,6-d]imidazole-7,4'-piperidin]-3-yl)piperidine-2,6-dione]: the IC50 turned out to be 0.81 nM in assay [1] (Homo sapiens, T47D, 144 h) and 34.6 nM in assay [2]. The “Degradation rate of ERα in T-47D cells (%)” value came out at 64% in assay [3] (1nM) and 61% in assay [3] (10nM). The “Degradation rate of ERα in MCF-7 cells (%)” value in assay [4] (1nM) was determined as 69%; in assay [4] (10nM), 63%.

`Cn1c(=O)n(C2CCC(=O)NC2=O)c2cc3c(cc21)C1(CCN(C2CCC4(CC2)CCN(c2ccc([C@@H]5c6ccc(O)cc6CC[C@@H]5c5ccccc5)cc2)CC4)CC1)CO3` (stereo partly drawn) [ER-P-60]: the IC50 came out at 1.41 nM in assay [1] (Homo sapiens, T47D, 144 h) and 0.362 nM in assay [2]. Besides, the “Degradation rate of ERα in T-47D cells (%)” value in assay [3] (1nM) was found to be 21%; in assay [3] (10nM) it was 51%. In addition, the “Degradation rate of ERα in MCF-7 cells (%)” value is on record as 14% in assay [4] (1nM) and 36% in assay [4] (10nM).

Take `Cn1c(=O)n(C2CCC(=O)NC2=O)c2cc3c(cc21)C1(CCN(CC2CCC4(CC2)CN(c2ccc([C@@H]5c6ccc(O)cc6CC[C@@H]5c5ccccc5)cc2)C4)CC1)CO3` (stereo partly drawn) [ER-P-61]: the IC50 in assay [1] (Homo sapiens, T47D, 144 h) was found to be 1.12 nM; in assay [2], 28.8 nM. Moreover, the “Degradation rate of ERα in T-47D cells (%)” value in assay [3] (1nM) came out at 22%; in assay [3] (10nM), 43%. For the same compound, the entries for the “Degradation rate of ERα in MCF-7 cells (%)” value in assay [4] (1nM) and in assay [4] (10nM) were 9% and 18%, respectively.

With `Cn1c(=O)n(C2CCC(=O)NC2=O)c2ccc3c(c21)C1(CCN(C(=O)[C@H]2CC[C@H](CN4CCN(c5ccc([C@@H]6c7ccc(O)cc7CC[C@@H]6c6ccccc6)cc5)CC4)CC2)CC1)CO3` (stereo partly drawn) [ER-P-7], the IC50 in assay [1] (Homo sapiens, T47D, 144 h) stood at 1.74 nM; in assay [2] it was 603 nM. Further, the “Degradation rate of ERα in T-47D cells (%)” value in assay [3] (1nM) was found to be 44%; in assay [3] (10nM), 77%. For the same compound, the “Degradation rate of ERα in MCF-7 cells (%)” value in assay [4] (1nM) is recorded as 22%; in assay [4] (10nM), 62%.

In the case of `Cn1c(=O)n(C2CCC(=O)NC2=O)c2ccc3c(c21)OCC31CCN(C2CC3(C2)CN(c2ccc([C@@H]4c5ccc(O)cc5CC[C@@H]4c4ccccc4)cc2)C3)CC1` (stereo partly drawn) [ER-P-18, 3-(1'-(2-(4-((1R,2S)-6-hydroxy-2-phenyl-1,2,3,4-tetrahydronaphthalen-1-yl)phenyl)-2-azaspiro[3.3]heptan-6-yl)-1-methyl-2-oxo-1,2-dihydro-3H,7H-spiro[benzofuro[6,7-d]imidazole-6,4'-piperidin]-3-yl)piperidine-2,6-dione], the 50% inhibitory concentration (IC50) was determined as 13.7 nM in assay [1] (Homo sapiens, T47D, 144 h) and 7240 nM in assay [2]. The “Degradation rate of ERα in T-47D cells (%)” value in assay [3] (1nM) was 20%; in assay [3] (10nM) it was 23%. Also, the “Degradation rate of ERα in MCF-7 cells (%)” value in assay [4] (1nM) is recorded as 33%; in assay [4] (10nM), 18%.

`Cn1c(=O)n(C2CCC(=O)NC2=O)c2ccc3c(c21)OCC31CCN(C2CC3(CCN(c4ccc([C@@H]5c6ccc(O)cc6CC[C@@H]5c5ccccc5)cc4)CC3)C2)CC1` (stereo partly drawn) [ER-P-15, 3-(1'-(7-(4-((1R,2S)-6-hydroxy-2-phenyl-1,2,3,4-tetrahydronaphthalen-1-yl)phenyl)-7-azaspiro[3.5]nonan-2-yl)-1-methyl-2-oxo-1,2-dihydro-3H,7H-spiro[benzofuro[6,7-d]imidazole-6,4'-piperidin]-3-yl)piperidine-2,6-dione]: the results for the IC50 in assay [1] and in assay [2] were 0.65 nM and 2980 nM, respectively. Further, the “Degradation rate of ERα in T-47D cells (%)” value stood at 44% in assay [3] (1nM) and 31% in assay [3] (10nM). The figures for the “Degradation rate of ERα in MCF-7 cells (%)” value in assay [4] (1nM) and in assay [4] (10nM) were 22% and 26%, respectively.

For the compound `CN(C(=O)CN1CCC2(CC1)CCC1(CC2)COc2c1ccc1c2CN(C2CCC(=O)NC2=O)C1=O)C1CCC2(CC1)CN(c1ccc([C@@H]3c4ccc(O)cc4CC[C@@H]3c3ccccc3)cc1)C2` (stereo partly drawn) [ER-P-20, 2-(7-(2,6-dioxohesperidin-3-yl)-6-oxo-7,8-dihydro-2H,6H-dipyrazole[furo[2,3-e]isoindole-3,1'-cyclohexane-4',4'-piperidin]-1"-yl)-N-(2-(4-((1R,2S)-6-hydroxy-2-phenyl-1,2,3,4-tetrahydronaphthalen-1-yl)phenyl)-2-azaspiro[3.5]nonan-7-yl)-N-methylacetamide], the IC50 in assay [1] (Homo sapiens, T47D, 144 h) came to 5.02 nM; in assay [2], 2230 nM. The “Degradation rate of ERα in T-47D cells (%)” value in assay [3] (1nM) worked out at 38%; in assay [3] (10nM), 66%. Also, the “Degradation rate of ERα in MCF-7 cells (%)” value in assay [4] (1nM) came to 5%; in assay [4] (10nM) it was 30%.

For the compound `Cn1c(=O)n(C2CCC(=O)NC2=O)c2cc3c(cc21)C1(CCN(CC2CCN(c4ccc([C@@H]5c6ccc(O)cc6CC[C@@H]5c5ccccc5)cc4)CC2)CC1)CO3` (stereo partly drawn) [ER-P-24, 3-(1'-((1-(4-((1R,2S)-6-hydroxy-2-phenyl-1,2,3,4-tetrahydronaphthalen-1-yl)phenyl)piperidin-4-yl)methyl)-1-methyl-2-oxo-1,2-dihydro-3H,6H-spiro[benzofuro[5,6-d]imidazole-7,4'-piperidin]-3-yl)piperidine-2,6-dione], the IC50 was 19.2 nM in assay [1] (Homo sapiens, T47D, 144 h) and 1070 nM in assay [2]. For the same compound, the “Degradation rate of ERα in T-47D cells (%)” value in assay [3] (1nM) is reported as -16%; in assay [3] (10nM) it was -49%. The “Degradation rate of ERα in MCF-7 cells (%)” value in assay [4] (1nM) is given as -68%; in assay [4] (10nM), -39%.

Turning to `O=C1CC[C@H](N2Cc3cc(N4CCN(CC5CCN(c6ccc([C@@H]7c8ccc(O)cc8CC[C@@H]7c7ccccc7)cc6)CC5)CC4)ccc3C2=O)C(=O)N1` [ARV-471, reference compound], the IC50 in assay [1] (Homo sapiens, T47D, 144 h) was found to be 0.0017 nM; in assay [2], 0.0017 nM. The figures for the “Degradation rate of ERα in T-47D cells (%)” value in assay [3] (1nM) and in assay [3] (10nM) were 61% and 85%, respectively. For the same compound, the “Degradation rate of ERα in MCF-7 cells (%)” value is 38% in assay [4] (1nM) and 76% in assay [4] (10nM).

In the case of `O=C1CC[C@H](NC(=O)c2ccc3c(c2F)OCC32CCN(C3CCC4(CC3)CN(c3ccc([C@@H]5c6ccc(O)cc6CC[C@@H]5c5ccccc5)cc3)C4)CC2)C(=O)N1` [ER-P-38, N-((S)-2,6-dioxopiperidin-3-yl)-7-fluoro-1'-(2-(4-((1R,2S)-6-hydroxy-2-phenyl-1,2,3,4-tetrahydronaphthalen-1-yl)phenyl)-2-azaspiro[3.5]nonan-7-yl)-2H-spiro[benzofuran-3,4'-piperidine]-6-carboxamide], the IC50 amounted to 18.6 nM in assay [1] (Homo sapiens, T47D, 144 h) and 505 nM in assay [2]. Besides, the “Degradation rate of ERα in T-47D cells (%)” value in assay [3] (1nM) is reported as 1%; in assay [3] (10nM), 3%. The entries for the “Degradation rate of ERα in MCF-7 cells (%)” value in assay [4] (1nM) and in assay [4] (10nM) were 12% and -14%, respectively.

Consider `O=C1CCC(Nc2ccc3c(c2)OC2(CC3)CCN(C[C@H]3CC[C@@H](OC4CCN(c5ccc([C@@H]6c7ccc(O)cc7CC[C@@H]6c6ccccc6)cc5)CC4)CC3)CC2)C(=O)N1` (stereo partly drawn) [ER-P-43, 3-((1'-(((1S,4s)-4-((1-(4-((1R,2S)-6-hydroxy-2-phenyl-1,2,3,4-tetrahydronaphthalen-1-yl)phenyl)piperidin-4-yl)oxy)cyclohexyl)methyl)spiro[chromane-2,4'-piperidin]-7-yl)amino)piperidine-2,6-dione], for which the IC50 in assay [1] (Homo sapiens, T47D, 144 h) was 95.1 nM; in assay [2] it was 1070 nM. For the same compound, the “Degradation rate of ERα in T-47D cells (%)” value is given as 10% in assay [3] (1nM) and -1% in assay [3] (10nM). The “Degradation rate of ERα in MCF-7 cells (%)” value is given as -13% in assay [4] (1nM) and -19% in assay [4] (10nM).

Values taken from patent publication EP4722219A1 (Gan & Lee Pharmaceuticals Co., Ltd., priority 2023, dated 2024).
